Like-named read-outs stand apart in the source and are kept apart here. Blank lines part the entries; values can stand above or below the compound they belong to.
Columns and labels:
[1] = Weight progression of treated rats; format: in vivo, Rattus norvegicus; conditions: alone or co-administered, VP2.51 2.5 mg/Kg i.p. 15 days, L-BMAA 300 mg/kg i.p. 5 days, 100 days
From the text: After this time the animals were sacrificed.

[2] = tested on: LC3-II and P-mTOR; test: Analysis of LC3-II and P-mTOR by western-blot (autophagy) in motor cortex and lumbar spinal cord; format: in vivo, Rattus norvegicus
Procedure: The entire brain and the lumbar spinal cord were rapidly removed and stored at -80°C.
To analyse LC3-II and P-mTOR by western-blot, 100 mg of motor cortex and lumbar spinal cord of each animal were homogenized in a RIPA buffer: 50 mM Tris–HCl pH 7.4, 50 mM NaCl, Nonidet P-40 1%, 1 mM EDTA, 1 mM PMSF, 1 mg/mL aprotinin, […] leupeptin, 1 mg/mL pepstatin, at a rate of […] of tissue. The mixture was sonicated for 2 min with 2 s pulses of sonication and 2 s off at amplitude of 40%. Once the samples were homogenized, the evaluation and protein electrophoresis was performed. The protocol was adapted from Zhang et al as described in Muñoz-Sáez et al.
Before the electrophoresis, the protein concentrations of all samples were determined by Bradford assay (Sigma–Aldrich Inc., St. Louis, MO, USA; Bradford, 1976).
Electrophoresis for protein separation was performed by SDS-PAGE. In all cases, the concentrating gel contained 6% polyacrylamide. Regarding LC3-II, the percentage of polyacrylamide was 12% for the separating gel and for P-mTOR an 8% polyacrylamide separating gel was used. Subsequently, proteins from the gels were transferred to a nitrocellulose membrane (AmershamTM HybondTM–ECL) in a wet system at 10 V o/n and 4°C. Membranes were incubated with following primary antibodies: a rabbit polyclonal anti-tubulin β-III (Novus Biologicals, Littleton, CO, USA), a rabbit polyclonal anti-LC3-II (Novus Biologicals, Littleton, CO, USA) and rabbit polyclonal anti-mTOR (Phospho-Ser2448) (Novus Biologicals, Littleton, CO, USA). As a secondary antibody, we applied Donkey anti-rabbit IgG-Fc Horseradish Peroxidase (HRP) (Bethyl Laboratories, Montgomery, TX, USA). All the antibodies were used according to the manufacturers’ specifications. Proteins were detected by enhanced chemiluminescence. Digital images were acquired using a Fujifilm Intelligent Darkbox II (Fuji Systems USA, Stamford, CT) and the image processing for quantification was conducted with free image processing software Image J.

[3] = tested on: male rats, Wistar strain; test: Neurological evaluation in L-BMAA motor neuron disease model
Procedure: Assays were carried out using male rats of Rattus norvegicus, albino variety, Wistar strain, that were supplied by Harlan Interfauna Ibérica S.A. (Barcelona, Spain). Animals were kept at constant temperature (21 ± 1°C) on a reversed light/dark cycle with diets and water ad libitum (A04 commercial rodent diet, Panlab, Barcelona, Spain). […] Animal’s health was monitored by weight control. […] Animals were sacrificed at the established time point under general anaesthesia with isoflurane (ISOFLO®, Abbott Laboratories, Abbott Park, IL, USA).
At weaning time (postnatal day 21) animals, with a weight between 45 and 55 g, were intraperitoneally (i.p.) injected with 300 mg/kg of L-BMAA (L-BMAA hydrochloride, Sigma-Aldrich, Ref. B107), during 5 consecutive days. The injected solution was composed by 50 mg of L-BMAA dissolved in 500 μl of PBS (0.1 mg / μl).
VP2.51 was dissolved in a stock solution of DMSO (dimethyl sulfoxide, Sigma) at 100 mg/mL. This stock was used to prepare a final solution of 1 mg/mL in PBS with 5% DMSO and 5% Tween® 80 (Sigma). Rats were injected i.p. 2.5 mg/Kg beginning at two different times: on the first day after treatment with L-BMAA (PT1) and on day post-treatment 30 (PT30). Injection treatment was performed for 15 consecutive days.
In summary, 6 different groups of 12 animals each were used: Control (only PBS injected), L-BMAA, L-BMAA+VP2.51 PT1, VP2.51 PT1, L-BMAA+VP2.51 PT30, VP2.51 PT30. Weight monitoring was performed every day during 100 days. After this time the animals were sacrificed.
The neurological tests were carried out blindly as described by de Munck et al [13], once a week during 100 days. Briefly, the neurological assess was carried out with three different tests: ambulation, tail suspension test and strength test. […] In the tail suspension test, the rat was suspended by the tail at 10 cm over the surface. The ability to keep the hind limbs in the normal neutral position adopted by rodents in such situation, i.e., describing a “T” was evaluated, together with the stiffness of the limbs and the inter-limb coordination during kicking. The strength test and was carried out setting down the rats on a flat surface, both forelegs and hind limbs on it, while pulling the tail softly to the opposite direction of animal usual move course. The ability the rats had to drag and offer resistance, assessing their faculty to kept hind limbs under the body without spreading their legs away from it was observed. The neurological evaluation was established in a scale comprised between 0 and 10, where 0 is the evaluation given to animals which are not symptomatic, control animals, and 10 belongs to a state of total functional loss of the hindlimbs and postural control.

[4] = tested on: SH-SY5Y cells; test: Neuroprotection in cellular L-BMAA model (MTT cell viability); format: cell-based; conditions: L-BMAA 10 mM, inhibitors 10 μM, 24 h
Procedure: SH-SY5Y cells on a 96 well plate ere incubated with L-BMAA (10 mM) with or without inhibitors (10 μM). A control experiment was set at the same time without L-BMAA or inhibitors. After 24 h a MTT was performed to determine cell viability using known procedures in the literature. Experiment was performed in triplicate.
Mechanistically and structurally diverse GSK-3 inhibitors were tested in a cellular model of L-BMAA to study whether GSK-3 inhibition was implicated in neuroprotection at L-BMAA damage, using a forward chemical genetic approach. […] Cells were incubated with L-BMAA together with or without inhibitors for 24 h and cell viability was determined.

[5] = target: T1, Human recombinant GSK-3β (Homo sapiens, UniProt P49841); conditions: cited from earlier work
T1 construct: purchased Millipore (Millipore Iberica S.A.U.)

[6] = In vitro parallel artificial membrane permeability assay (PAMPA-BBB); format: in vitro ADME, porcine; conditions: for Pe: PBS:DMSO (95:5), 4 h at 25°C, mean ± SD of 3 independent experiments
Procedure: Prediction of the brain penetration was evaluated using a parallel artificial membrane permeability assay (PAMPA). Ten commercial drugs, phosphate buffer saline solution at pH 7.4 (PBS), DMSO and dodecane were purchased from Sigma, Across organics, Aldrich and Fluka. […] Filter PDVF membrane units (diameter 30 mm, pore size 0.45 μm) from Symta were used to filter the samples. A 96-well plate UV reader (Thermoscientific, Multiskan spectrum) was used for the UV measurements. Test compounds were dissolved in DMSO (250 μL). 25 μL of this compound stock solution was taken and 225 μL of DMSO and 4750 μL of PBS pH 7.4 buffer were added to reach 5% of DMSO concentration in the experiment. These solutions were filtered. The acceptor 96-well microplate was filled with 180 μL of PBS:DMSO (95:5). The donor 96-well plate was coated with 4 μL of porcine brain lipid in dodecane (20 mg mL^-1) and after 5 minutes, 180 μL of each compound solution was added. […] Then the donor plate was carefully put on the acceptor plate to form a “sandwich”, which was left undisturbed for 4 h at 25°C. During this time the compounds diffused from the donor plate through the brain lipid membrane into the acceptor plate. After incubation, the donor plate was removed. The concentration of VP2.51 and commercial drugs in the acceptor and the donor wells was determined by UV plate reader. Every sample was analyzed at three to five wavelengths, in 3 wells and in three independent runs. […] Validation was made comparing the reported permeabilities values of commercial drugs with the experimental data obtained employing this methodology.
Finally, the ability to cross the blood-brain barrier (BBB) was determined. […] VP2.51 permeability through the BBB was evaluated by a parallel artificial membrane permeability assay (PAMPA) using porcine brain membrane lipid and ten commercial drugs following the methodology described by Di et al.

[7] = target: T1, Human recombinant GSK-3β; test: Inhibition of GSK-3 (Kinase-Glo luminescent assay; ADP-Glo for kinetics); format: biochemical
Procedure: Human recombinant GSK-3β was purchased from Millipore (Millipore Iberica S.A.U.). The prephosphorylated polypeptide substrate was purchased from Millipore (Millipore Iberica S.A.U.). Kinase-Glo Luminescent Kinase Assay was obtained from Promega (Promega Biotech Ibérica, SL). ATP and all other reagents were from Sigma-Aldrich (St. Louis, MO). Assay buffer contained 50 mM HEPES (pH 7.5), 1 mM EDTA, 1 mM EGTA, and 15 mM magnesium acetate.
The method of Baki et al was followed to analyse the inhibition of GSK-3β. Kinase-Glo assays were performed in assay buffer using black 96-well plates. […] After 30 min incubation at 30°C the enzymatic reaction was stopped with 40 μl of Kinase-Glo reagent. Glo-type luminescence was recorded after 10 min using a FLUOstar Optima (BMG Labtechnologies GmbH, Offenburg, Germany) multimode reader. The activity is proportional to the difference of the total and consumed ATP. The inhibitory activities were calculated on the basis of maximal activities measured in the absence of inhibitor. […] To investigate the inhibitory mechanism of VP2.51 on GSK-3β, a kinetic study varying both ATP (from 1 to 50 μM) and VP.251 (from 0.5 to 1 μM) concentrations were performed using the ADP-Glo Kinase Assay.
To study the type of enzymatic inhibition for the compounds, measurements after several times of incubation of the enzyme with the inhibitor VP2.51 were performed.

[8] = target: casein kinase-1δ (CK-1δ) (Homo sapiens, UniProt P48730); test: CK-1δ inhibition following a described protocol; format: biochemical
[9] = tested on: panel of fifty different human kinases; conditions: fixed concentration 10 μM
Procedure: Fig 1 Biological activity of VP2.51 on GSK-3 and other protein kinases. […] B) Kinetic GSK-3 inhibition data determined for VP2.51. ATP concentrations in the reaction mixture varied from 1 to 50 μM. […] Each point is the mean of two different experiments, each one analyzed in duplicate. C) Kinase profiling of VP2.51 on human recombinant kinases. The percentage (%) of kinase activity after the treatment with a fixed concentration (10 μM) of the compound is shown.

[10] = tested on: cytochromes P450 family; set-up: method as in earlier work; conditions: cited from earlier work
[11] = tested on: multiple sclerosis model; set-up: method as in PMID 23606540; conditions: cited from earlier work

T1 sequence (P49841 whole entry): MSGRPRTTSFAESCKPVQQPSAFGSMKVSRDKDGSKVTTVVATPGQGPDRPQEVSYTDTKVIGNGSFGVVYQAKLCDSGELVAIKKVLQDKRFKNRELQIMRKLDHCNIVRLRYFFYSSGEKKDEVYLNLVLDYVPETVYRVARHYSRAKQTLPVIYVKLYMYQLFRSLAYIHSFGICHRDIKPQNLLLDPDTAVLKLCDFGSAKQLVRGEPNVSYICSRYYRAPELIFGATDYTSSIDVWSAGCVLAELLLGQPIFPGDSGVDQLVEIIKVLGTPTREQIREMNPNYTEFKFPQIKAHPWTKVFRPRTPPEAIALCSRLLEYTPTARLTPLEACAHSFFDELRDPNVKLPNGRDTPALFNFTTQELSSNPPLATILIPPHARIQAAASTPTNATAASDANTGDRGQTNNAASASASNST
casein kinase-1δ (CK-1δ), sequence (P48730 whole entry): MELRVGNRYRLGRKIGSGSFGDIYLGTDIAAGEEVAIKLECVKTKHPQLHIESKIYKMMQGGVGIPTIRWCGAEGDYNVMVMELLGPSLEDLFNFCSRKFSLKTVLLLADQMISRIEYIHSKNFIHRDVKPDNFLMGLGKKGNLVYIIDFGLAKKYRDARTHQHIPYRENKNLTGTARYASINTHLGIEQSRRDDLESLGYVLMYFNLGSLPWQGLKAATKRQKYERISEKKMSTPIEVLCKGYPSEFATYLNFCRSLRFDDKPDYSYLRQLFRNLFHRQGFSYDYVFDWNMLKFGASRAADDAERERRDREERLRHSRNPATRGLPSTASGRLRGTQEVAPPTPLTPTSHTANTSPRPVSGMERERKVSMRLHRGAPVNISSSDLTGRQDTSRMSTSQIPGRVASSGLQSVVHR

SMILES: CNC[C@H](N)C(=O)O [L-BMAA, β-N-methylamino-L-alanine, reference compound]
- Effect on weight progression / physical development [1]: do not affect physical development
- P-mTOR levels in lumbar spinal cord vs control animals ([2]; L-BMAA treated rats, t = 3.257, p = 0.031): significantly higher
- P-mTOR levels in motor cortex vs control animals ([2]; L-BMAA treated rats, t = 5.889, p = 0.0042): significantly higher
- LC3-II levels in motor cortex vs control animals ([2]; L-BMAA treated rats, t = 5.969, p = 0.027): significantly higher
- LC3-II levels in lumbar spinal cord vs control animals ([2]; L-BMAA treated rats, t = 46.85, p = 0.0005): significantly higher
- neurological evaluation score (scale 0-10) ([3]; rats treated with L-BMAA only, 300 mg/kg i.p. 5 consecutive days): 7 points

SMILES: CC(=O)C1=C(c2cn(C)c3ccccc23)C(=O)NC1=O [INH-38]
- Cell viability, protection from L-BMAA damage [4]: protect cells from L-BMAA damage
- Kind of GSK-3 inhibition [5]: ATP-competitive inhibitors

SMILES: CCCCCCCCCCCC(=O)NNC(=O)c1c(O)c2ccccc2n(CC)c1=O [VP0.7]
- Cell viability, protection from L-BMAA damage [4]: protect cells from L-BMAA damage
- Kind of GSK-3 inhibition ([5]; does not compete with ATP nor substrate): allosteric inhibitor

- Pe ([6]; PAMPA-BBB): 1.7 ± 0.3 10^-6 cm s^-1
SMILES: CN1C(C(=O)Nc2ccccn2)=C(O)c2ccccc2S1(=O)=O [Piroxicam, reference compound]

SMILES: COc1ccc(CNC(=O)Nc2nc(C)c(C(C)=O)s2)cc1 [VP2.51, 1-(5-Acetyl-4-methyl-1,3-thiazol-2-yl)-3-(4-methoxybenzyl)urea]
- Inhibitory mechanism (kinetic experiments) ([7]; ATP 1 to 50 μM, GS-2 12.5 μM, ADP-Glo): competes in vitro with ATP
- Type of enzymatic inhibition (time dependent experiments) ([7]; VP2.51 at 1 and 2 μM, several times of incubation with enzyme): reversible inhibition
- IC50 ([7]; human recombinant enzyme, 1 μM ATP, 30 min, 30°C, read-out: GSK-3 inhibitory activity in vitro IC50): 0.62 ± 0.15 µM
- IC50 [8]: 7.28 ± 0.87 µM
- CK-1δ IC50 relative to GSK-3 IC50 ([8]; fold over GSK-3 inhibition): tenfold
- Kinase selectivity profile [9]: targeting only both isoforms of GSK-3, α and β, and with less potency, casein kinase-1δ (CK-1δ)
- BBB prediction ([6]; PAMPA-BBB): CNS + (CNS + when they present a permeability > 4.15 x 10^−6 cm s^-1)
- Pe ([6]; PAMPA-BBB): 7.6 ± 0.4 10^-6 cm s^-1
- Papp at 4 h ([6]; pig, pH 7.4, PAMPA, porcine brain membrane lipid, read-out: effective permeability): 7.6 ± 0.4 ×10⁻⁶ cm/s
- Cell viability, protection from L-BMAA damage [4]: protect cells from L-BMAA damage
- Effect on weight progression / physical development [1]: do not affect physical development
- P-mTOR level in lumbar spinal cord vs L-BMAA treated animals ([2]; L-BMAA+VP2.51 at PT1): lower non-significant
- LC3-II levels in motor cortex vs L-BMAA treated animals ([2]; L-BMAA+VP2.51 at PT1, t = 3.547, p <0.05): significantly lower
- LC3-II levels in lumbar spinal cord vs L-BMAA treated animals ([2]; L-BMAA+VP2.51 at PT1, t = 5.083, p <0.01): lower
- P-mTOR levels in motor cortex vs L-BMAA treated animals ([2]; L-BMAA+VP2.51 at PT1, t = 7.223, p <0.001): significantly lower
- Inhibition of cytochromes P450 family [10]: weak or partial inhibitor
- Efficacy in multiple sclerosis model [11]: effective
- Evolution of neurological evaluation vs L-BMAA only group ([3]; L-BMAA + VP2.51 PT1 (2.5 mg/Kg i.p. 15 days from day 1 after L-BMAA), F = 89.34, p <0.0001): markedly improved
- Evolution of neurological evaluation vs L-BMAA only group ([3]; L-BMAA + VP2.51 PT30 (2.5 mg/Kg i.p. 15 days from day 30 post-treatment)): did not show significant differences
- neurological evaluation score (scale 0-10) ([3]; rats treated exclusively with VP2.51 (PT1 and PT30), 2.5 mg/Kg i.p. 15 days): zero
- Neurological pathologies or observable toxicities ([3]; rats, VP2.51 2.5 mg/Kg i.p. 15 days): does not promote either neurological pathologies or observable toxicities

- Pe ([6]; PAMPA-BBB): 8.9 ± 1.0 10^-6 cm s^-1
SMILES: CN(C)CCCN1c2ccccc2Sc2ccccc21 [Promazine, reference compound]

SMILES: c1ccc(-c2n/c(=N/CCN3CCOCC3)sn2-c2ccccc2)cc1 [ITDZ 55]
- Cell viability, protection from L-BMAA damage [4]: protect cells from L-BMAA damage
- Kind of GSK-3 inhibition [5]: substrate competitive inhibitor
